Reference: patent US20080207502A1, “Anti-Angiogenic Peptides and Methods of Use Thereof” (SOPHERION THERAPEUTICS, INC., priority 2004, published 2008)

How the values were obtained:
[1] = system: Bovine Retinal Endothelial Cells (BRE); test: VEGF-mediated survival/proliferation of BRE cells (WST1); type: cell-based
Description: (§1) The anti-angiogenic activities of the peptides were tested by measuring the level of inhibition of VEGF and bFGF mediated survival/proliferation of Bovine Retinal Endothelial Cells (BRE), Human Dermal Microvasculature Endothelial Cells, and Human Umbilical Vein Endothelial Cells, all of which are standard cell lines used to test anti-angiogenic compounds.
Bovine retinal endothelial (BRE) cells were maintained in Cambrex EG2 media. For non-adherent cell assays, on day one cells were starved for either 6 hours or overnight, then trypsinized and plated in 96-well plates in 100 μl of Optimem plus 1% fetal bovine serum (FBS). One hundred μl of Optimem plus 1% FBS was added to the wells containing, where appropriate, VEGF to a final concentration of 25 ng/ml, and the various peptides to final concentrations as described. For adherent cells, cells were plated in 96-well plates in complete media, allowed to adhere overnight, washed in starvation media (Optimem plus 1% FBS) and then starved during the day. At the end of the day, 100 μl of Optimem plus 1% FBS was added to the wells containing, where appropriate, VEGF to a final concentration of 25 ng/ml and the various peptides to final concentrations as described.
(§2) In all cases, after 72 hours incubation, the amount of live cells in each well was measured with the WST1 assay (Roche).

[2] = Biological activity of D-amino acid versions of ST100,038 (assay not specified); settings: ST100,045 tested against ST100,059 and a control
Description: D-amino acid peptides can be made by generating a D-amino acid peptide with the same sequence as a L-amino acid peptide or by preparing a retro inverso form of a peptide. ST100,045 (SEQ ID NO.: 31) has the same sequence as ST100,038 (SEQ ID NO.: 29) was tested against ST100,059 (SEQ ID NO.: 30) which is the retro inverso version of ST100,038 and a control.

[3] = system: B16 melanoma tumor; test: Subcutaneous B16 melanoma tumor model in vivo; set-up: species or system mouse; settings: vs untreated controls
Description: Because of the importance of the angiogenic process for tumorigenesis, miniproteins as described herein, were hypothesized to show good anti-tumor activity. The peptides of the invention were tested in an in vivo model of anti-tumor activity. This model compares the growth of sub cutaneous B16 melanoma tumor in vivo either untreated or treated with various amount of miniproteins described in this application. This model is widely accepted in the art as a model to test the anti-tumor activity of compounds that inhibit tumor growth because they have anti-angiogenic activity.
Male C57BL/6 mice were obtained with a mean body weight of 20±2 g. Mouse B16-F1 melanoma cells were implanted subcutaneously (5×10^5 cell per animal). Peptides (formulated in water) were administered ip daily at the amount indicated starting the day after cells injection. In general, tumors became palpable around 9 days after injection of cells. Tumor were then measured every 2 days.

[4] = system: binding of radiolabeled VEGF to endothelial cells; test: Inhibition of binding of radiolabeled VEGF to endothelial cells; settings: concentration of 30 μM; for inhibition of VEGF binding: FIG. 7; for VEGF binding inhibition: legend of FIG. 7
From the text: The activity of the peptides SEQ ID NO.: 1 and SEQ ID NO.: 2 in blocking the binding of radiolabeled VEGF to endothelial cells is shown in FIG. 7.

[5] = Heparin binding activity by liquid chromatography on Hi Trap Heparin HP column (NaCl elution); settings: step gradient 500-1000 mM NaCl in 10 mM NaH2PO4 pH 7
From the text: Liquid chromatography was used to determine the relative levels of heparin binding activity of the individual heparin binding domains and of the anti-angiogenic miniproteins that contains them. In this assay, the strength of the heparin binding activity is proportional to the amount of NaCl that is required to elute the peptide bound to the heparin column. Peptides with low binding activity are eluted with lower NaCl concentration, whereas higher concentrations of NaCl are required for peptides with higher binding activity.
Hi Trap Heparin HP column (1 ml, Amersham Biosciences) was equilibrated with 10 column volumes (CV) of equilibration (EQ) buffer=10 mM NaH2PO4pH 7. All buffers were loaded onto columns via syringes. 500 μl fractions are collected (flow rate=1 ml/minute). 500 μg of peptide (1 mg/ml, resuspended in EQ buffer) was added to each column and the flow through was collected for analysis. The columns were then washed with 3 CV of EQ buffer. Peptides are then eluted with a step gradient of 500, 625, 750, 875 mM NaCl in EQ buffer, 2 CV per each step. A final step of 3 CV of 1000 mM NaCl in EQ buffer was collected in 500 μl fractions. The A210 nm was measured using EQ and elution buffers as blanks.

[6] = system: mouse leukemia L1210 cells; test: Tumor cell proliferation (WST-1), L1210; type: cell-based; settings: FIG. 11
Description: Peptides to be tested were prepared at a stock concentration of 10 mM in sterile phosphate buffered saline. Cancer cell lines obtained from the American Type Culture Collection (MG-63, HT1080, A498, BxPC3, 786-0, PC-3, B16F1, B16F10, P388D1, Jurkat, MOLT4, THP-1, U-937, L1210, RPMI 8226, NCI H929, U266B1, K562) were cultured under appropriate conditions as described in the literature. Cell culture media and reagents were obtained from ATCC (Manassas, Va.), Invitrogen (Carlsbad, Calif.) or Mediatech (Herndon, Va.). Exponentially growing cultures were used for cell proliferation assays. Adherent cells were plated at a concentration of 100000 cells per milliter in growth media overnight (18-24 h) and treated the next day in a low serum media (growth media with 1% FBS for MG-63, HT1080, A498, BxPC3, PC-3, B16F1, B16F10. 786-0 cells were treated in media with 5% FBS). Suspension cell lines (P388D1, Jurkat, MOLT4, THP-1, U-937, L1210, RPMI 8226, NCI H929, U266B1, and K562) were diluted to a concentration of 100,000 cells per ml and treated on the same day with peptides. Peptides were diluted in treatment media and cells were treated for 48 or 72 hours depending on the cell line. Each dose was tested in triplicate for each experiment, and experiments were repeated for a minimum of three discrete times. After incubation, the relative number of cells was determined using WST-1 (Roche Applied Science). A 9.5 μl aliquot of WST-1 was added to each well. The plate was immediately read at 440 nm using a Bio-Tek PowerWave XS microplate reader, incubated for 2-3 hours at 37° C. and then read again. Cell proliferation was determined as the percent of the control cell proliferation. The absorbance of each well at time 0 was subtracted from the value of the final reading. Afterwards the blank values were averaged and subtracted from each test and control value. Finally, each test absorbance was divided by the average of the control absorbances and multiplied by 100 to obtain the percent of control. […]

[7] = system: L1210 murine leukemia; test: L1210 murine leukemia intravenous model in vivo; set-up: species or system mouse; settings: dosed IP, DBA/2 mice, FIG. 15a
Description: Antitumor activity of test peptides, administered intraperitoneally (IP), were evaluated against L1210 murine leukemia cells implanted intravenously (IV) in DBA/2 mice.
Studies generally consisted of randomly-assigned groups of 8 mice per group, which were inoculated IV with 1×10^5 cells per mouse from an in vivo leukemia cell line. In addition to groups tested with test peptides, studies usually included a vehicle-treated control group and a positive control group treated with an agent known to be active in the L1210 leukemia model. Starting one day after tumor inoculation (inoculation day defined as Day 0), mice were treated IP with either vehicle or test peptides in various schedules. Generally this consisted of treatment every other day for approximately 1 week (e.g., Days 1, 3, 5 and 7). A positive agent (e.g., cyclophosphamide) was usually given as a single IP injection on Day 1. All dosing solutions were prepared on each day of treatment. Survival was monitored daily and body weights were measured twice weekly. Anti-tumor activity was assessed by the increase in lifespan of the treated groups in comparison to the vehicle-treated control group. Studies with the L1210 leukemia model were limited to 30 days.

[8] = system: Human Umbilical Vein Endothelial Cells; test: bFGF-mediated survival/proliferation of human umbilical vein endothelial cells (WST1); type: cell-based; settings: for potency in blocking bFGF stimulation: compared with ST100,068, FIG. 6; for inhibition of bFGF mediated survival: comparison of several peptides, FIG. 10
Description: as §1
Human umbilical cord endothelial (HUVEC) cells were maintained in Cambrex EGM-2MV media. On day one, cells were starved overnight in 1% FBS in M200 media (Cascade Biologicals). The morning after, the media were replaced with serum-free media (control) or media containing 25 ng/ml of human VEGF165 and the various peptides to final concentrations as described.
as §2

ATSLPPHSSQSP (listed as Homo sapiens) [ST100,038]
Concentrations that completely abolished the VEGF-induced increase in WST-1 value ([1]; VEGF 25 ng/ml, 72 hours, FIG. 4): above 40 μM

ATSLPPHSSQSP (listed as Homo sapiens) [ST100,045]
biologically active [2]: Only the retro inverso form of ST100,038, (ST100,059; SEQ ID NO.: 30) was found to be biologically active

ATSLPPHSSQSPGGGPPAARGRRAARGRR (listed as Homo sapiens) [ST100,062]
inhibition of tumor growth ([3]; 20 mg/kg daily IP, FIG. 12): clearly inhibit tumor growth

PYAGRGDSVVYGLGGGPGAARGRRAARGRR [ST100,033]
inhibition of VEGF binding [4]: ~100% | VEGF binding inhibition [4]: completely abolished VEGF binding

RAAKKRKRAAKKRARAAKKRLGYVVSDGRGDYP (RAAKKRARAAKKRARAAKKRLGYVVSDGRGDYP; listed as Homo sapiens) [ST100,079]
[NaCl] for elution [5]: 1000 mM

RKKAARARKKAARARKKAARRLGYVVSDGRGDYP (listed as Homo sapiens) [ST100,081]
[NaCl] for elution [5]: 1000 mM

RKRAALRARKRAARARKRAARR (RKRAARARKRAARARKRAARR; listed as Homo sapiens) [ST100,083]
[NaCl] for elution [5]: 1100 mM

RLGYVVSDGRGDYP (listed as Homo sapiens) [ST100,077]
blocked cell proliferation or induced cell death [6]: Neither

RLGYVVSDGRGDYPKKKRRGRAARRGRAA [ST100,065]
[NaCl] for elution [5]: 750 mM | mice (cured mice) survived longer than 30 days [7]: Sixty to eighty percent | survival [7]: statistically significant increases in survival

RRGRAAKKKRRGRAAKKK (listed as Homo sapiens) [ST100,082]
[NaCl] for elution [5]: 1000 mM

RRGRAAKKKRRGRAAKKKPSQSSHPPLSTA (listed as Homo sapiens) [ST100,072]
potency in blocking bFGF stimulation [8]: more potent in blocking bFGF stimulation | [NaCl] for elution [5]: 1000 mM

RRGRAAKKKRRGRAAKKKRLGYVVSDGRGDYP [ST100,074]
inhibition of bFGF mediated survival [8]: the most active in inhibiting bFGF stimulation | [NaCl] for elution [5]: 1000 mM | mice (cured mice) survived longer than 30 days [7]: Sixty to eighty percent | survival [7]: statistically significant increases in survival

RRGRAARRGRAAKKK (listed as Homo sapiens) [ST100,078]
blocked cell proliferation or induced cell death [6]: Neither | inhibition of bFGF mediated survival [8]: not as potent

RRGRAARRGRAAKKKPSQSSHPPLSTA (listed as Homo sapiens) [ST100,068]
inhibition of tumor growth ([3]; 20 mg/kg and 40 mg/kg daily IP, FIG. 13): able to inhibit tumor growth | potency in blocking VEGF stimulation ([1]; compared with ST100,059, FIG. 5): more potent in blocking VEGF stimulation | inhibition of VEGF stimulation ([1]; increasing doses, FIG. 5): inhibited with increasing doses

RRGRAARRGRAARRGRAAKKKPSQSSHPPLSTA (listed as Homo sapiens) [ST100,073]
inhibition of tumor growth ([3]; 20 mg/kg daily IP, FIG. 14): able to inhibit tumor growth | potency in blocking bFGF stimulation [8]: more potent in blocking bFGF stimulation | inhibition of bFGF mediated survival [8]: the most active in inhibiting bFGF stimulation | [NaCl] for elution [5]: 1000 mM

YDGRGDSVVYGLKKKAARGRRAARGRR [ST100,032]
inhibition of VEGF binding [4]: ~100% | VEGF binding inhibition [4]: completely abolished VEGF binding
